Results as given in patent publication US20050100998A1 (priority 2000, published 2005).
“Also recorded” adds a separate entry of the source.

Legend:
UMP-CMP kinase [1] = target: T1, UMP-CMP kinase (Homo sapiens, UniProt P30085); test: Enzymatic activity assay (NMP phosphorylation, TLC of radiolabelled products); assay type: biochemical; conditions: for phosphorylation of the NMP as substrate (phosphate acceptor), in words: lysates of transfected cells vs vector-transfected cells, FIG. 5A; for ability of the NTP to act as phosphate donor (CDP formed), in words: NTP varied
T1 construct: This cDNA codes for a predicted 196 amino-acid protein; expressed in transfected cells; host or cells: HEK 293 or COS-7 cells transiently transfected with pRc/CMV carrying the UMP-CMP kinase cDNA; crude lysate used
T1 sequence (P30085 1-196): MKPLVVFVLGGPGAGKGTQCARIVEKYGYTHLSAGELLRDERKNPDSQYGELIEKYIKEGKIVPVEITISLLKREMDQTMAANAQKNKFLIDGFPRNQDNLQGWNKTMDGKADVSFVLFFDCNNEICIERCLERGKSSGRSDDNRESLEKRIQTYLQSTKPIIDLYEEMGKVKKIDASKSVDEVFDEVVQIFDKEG
Description: Tests were conducted on the enzyme produced by the cDNA.
Since many NMP kinases phosphorylate multiple types of NMPs with varying relative kinetics, a variety of NMPs were tested as substrates.
The most preferred phosphate donor of the kinase was next investigated. […] The amount of CDP formed indicates the ability of each NTP to act as a phosphate donor.
Cell lysates (25 μg total protein) prepared as described for Western blot were added to the following reaction mixture: 83 mM tris-HCl (pH 8.0), 3.3 mM MgCl2, 0.17 M KCl, 6.7 mM NTP, 6.7 mM NMP and 0.1 μCi of the indicated [^3H]-NU (60.4 mCi/mmol). The reaction was carried out at 37° C. for 6 min and terminated with an equal volume of 2 M formic acid. Unlabeled NDP was added (6.7 mM final concentration) and the reactions were dried under a steam of nitrogen. The products were resuspended in distilled H2O and analyzed by thin layer chromatography.
Chromatography was performed by ascending development (dry start) in closed plexiglass chambers at room temperature using 0.25 M KH2PO4 (pH 3.4) as described previously. […] The products were visualized under UV light and identified by co-migration with authentic nucleotides. Spots corresponding to different nucleotides were scraped from the plate and radioactive reaction products were quantified with a multi-purpose liquid scintillation counter.

UMP-CMP kinase [2] = target: T1, UMP-CMP kinase; conditions: Mol. Pharmacol. 56:562-569 (1999), ATP as donor, 30 min; cited from earlier work
HL-60 cells = test: RT-PCR of UMP-CMP kinase expression and phenotype in differentiating HL-60 cells; assay type: cell-based, human; conditions: HL-60 cells treated with differentiating agent
Excerpt: The possibility that UMP-CMP kinase was developmentally regulated as monocytes proceed toward the macrophage phenotype was also investigated. To assess this, human monocytes were isolated and cultered for 10 days as they differentiated into macrophages. RNA was isolated on the day of cell plating and then throughout the culture period. […] These cells are monocytic, but differentiate into macrophage-like cells in the presence of phorbol-12-myristate-13-acetate (PMA) (Murao et al., 1983; Rovera et al., 1979), or into neutrophils in the presence of DMSO (Collins et al., 1975). […] These changes included adhesion and altered cell shape. No change in UMP-CMP kinase expression was detected, however, when assayed by RT-PCR. […] Similarly, no change was detected after DMSO treatment.
Because the cDNA had been cloned from a macrophage library, it was also considered possible that UMP-CMP kinase expression might be developmentally regulated as monocytes proceed toward the macrophage phenotype. To evaluate this possibility, Human monocytes were isolated and cultured for 10 days as they differentiated into macrophages. […] In order to confirm this conclusion, HL-60 cells were employed. […] Similarly, no change in this message was detected after DMSO treatment (data not shown).

[3] = varying Mg^2+ concentrations, FIG. 4

Nc1ncnc2c1ncn2[C@@H]1O[C@H](COP(=O)(O)O)[C@@H](O)[C@H]1O [AMP]
phosphorylation of the NMP as substrate (phosphate acceptor), in words (UMP-CMP kinase [1]): only slightly

Nc1ncnc2c1ncn2[C@@H]1O[C@H](COP(=O)(O)OP(=O)(O)OP(=O)(O)O)[C@@H](O)[C@H]1O [ATP]
ability of the NTP to act as phosphate donor (CDP formed), in words (UMP-CMP kinase [1]; CMP as substrate, FIG. 5B): preferred as phosphate donors over CTP and GTP | phosphorylation of the NMP as substrate (phosphate acceptor), in words (UMP-CMP kinase [1]): Modest

Nc1ccn([C@@H]2O[C@H](COP(=O)(O)O)[C@@H](O)[C@H]2O)c(=O)n1 [CMP, Cytidine Monophosphate]
reaction efficiency in the presence of CMP relative to UMP (UMP-CMP kinase [1]): three-fold greater reaction efficiency | phosphorylation of the NMP as substrate (phosphate acceptor), in words (UMP-CMP kinase [1]): prefers | phosphorylation by the kinase as reported by Van Rompay et al. (UMP-CMP kinase [2]): efficiently phosphorylated

Nc1ccn([C@@H]2O[C@H](COP(=O)(O)O)[C@@H](O)[C@@H]2O)c(=O)n1 [CTP]
reaction efficiency as phosphate donor relative to ATP or UTP (UMP-CMP kinase [1]; CMP as substrate, FIG. 5B): half and approximately half

C[S+](C)[O-] [DMSO]
change in UMP-CMP kinase expression by RT-PCR (HL-60 cells): no change

Nc1nc2c(ncn2[C@@H]2O[C@H](COP(=O)(O)O)[C@@H](O)[C@H]2O)c(=O)[nH]1 [GMP]
phosphorylation of the NMP as substrate (phosphate acceptor), in words (UMP-CMP kinase [1]): unable to phosphorylate

[Mg+2] [Mg^2+]
Mg^2+ concentration giving maximal UMP-CMP kinase activity (UMP-CMP kinase [1]; [3]): 3 mM | effect of Mg^2+ on UMP-CMP kinase activity, in words (UMP-CMP kinase [1]; [3]): increases UMP-CMP kinase activity in a concentration-dependent manner

CCCCCCCCCCCCCC(=O)O[C@@H]1[C@@H](C)[C@@]2(O)[C@@H](C=C(CO)C[C@]3(O)C(=O)C(C)=C[C@@H]23)[C@@H]2C(C)(C)[C@]12OC(C)=O [PMA, phorbol-12-myristate-13-acetate]
change in UMP-CMP kinase expression by RT-PCR (HL-60 cells): No change | phenotypic change of HL-60 cells (HL-60 cells): altered the HL-60 cell phenotype from a suspension cell to an adherent cell; also recorded: induced phenotypic changes

O=c1ccn([C@@H]2O[C@H](COP(=O)(O)O)[C@@H](O)[C@H]2O)c(=O)[nH]1 [UMP]
phosphorylation of the NMP as substrate (phosphate acceptor), in words (UMP-CMP kinase [1]): prefers | phosphorylation by the kinase as reported by Van Rompay et al. (UMP-CMP kinase [2]): efficiently phosphorylated

O=c1ccn([C@@H]2O[C@H](COP(=O)(O)OP(=O)(O)OP(=O)(O)O)[C@@H](O)[C@H]2O)c(=O)[nH]1 [UTP]
ability of the NTP to act as phosphate donor (CDP formed), in words (UMP-CMP kinase [1]; CMP as substrate, FIG. 5B): preferred as phosphate donors over CTP and GTP

Nc1ccn([C@H]2C[C@H](O)[C@@H](COP(=O)(O)O)O2)c(=O)n1 [dCMP]
phosphorylation by the kinase as reported by Van Rompay et al. (UMP-CMP kinase [2]): efficiently phosphorylated
